The numbers were not newly measured in US9550804B2, “Dosage form to increase prasterone bioavailability” (Health Science Funding, LLC, priority 2011, dated 2017), which cites them from elsewhere.

Test in data set [1]: not given
The source holds these as a separate data set.

Values after ≈ are worked out from the molar mass of the structure shown.

As for `C[C@]12CC[C@H](O)CC1=CC[C@@H]1[C@@H]2CC[C@]2(C)C(=O)CC[C@@H]12` [Prasterone, (3S,8R,9S,10R,13S,14S)-3-hydroxy-10,13-dimethyl-3,4,7,8,9,10,11,12,13,14,15,16-dodecahydro-1H-cyclopenta[a]phenan-thren-17(2H)-one], the solubility in water is 63.5 µg/mL (≈ 220 µM). For the same compound, the “log P (octanol-water)” value in data set [1] is 3.23.
